Test results reported in ChEMBL document CHEMBL1201861, “Genomics of Drug Sensitity in Cancer screening data, Wellcome Trust Sanger Institute”.
Where a name gives a salt, the structure may show the parent alone.

Assays:
[1] = system: ECC10; assay: cells; format: functional, cell-based, Homo sapiens;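 further: growth inhibition of ECC10 cells, read out by a cell viability assay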
Description: SANGER: Inhibition of human ECC10 cell growth in a cell viability assay.

[2] = system: LU-135; assay: cells; format: functional, cell-based, Homo sapiens
Description: SANGER: Inhibition of human LU-135 cell growth in a cell viability assay.

[3] = system: NBsusSR; assay: cells; format: functional, cell-based, Homo sapiens;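 further: growth inhibition of the human cell line, read out with a cell viability assay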
Description: SANGER: Inhibition of human NBsusSR cell growth in a cell viability assay.

[4] = system: NCI-H1666; assay: cells; format: functional, cell-based, Homo sapiens;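 further: growth inhibition of the cell line, read out with a cell viability assay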
Description: SANGER: Inhibition of human NCI-H1666 cell growth in a cell viability assay.

[5] = system: TGBC11TKB; assay: cells; format: functional, cell-based, Homo sapiens;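 further: growth inhibition of human TGBC11TKB cells, measured by a cell viability assay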
Description: SANGER: Inhibition of human TGBC11TKB cell growth in a cell viability assay.

[6] = system: Calu-1; assay: SANGER: Inhibition of human Calu-1 cell growth in a cell viability assay.; format: functional, cell-based
[7] = system: Caov-3 cell line; assay: cells; format: functional, cell-based, Homo sapiens;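 further: cell growth inhibition read out by a viability assay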
Description: SANGER: Inhibition of human Caov-3 cell growth in a cell viability assay.

[8] = system: DMS-53; assay: cells; format: functional, cell-based, Homo sapiens;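 further: cell viability assay measuring growth inhibition of human DMS-53 cells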
Description: SANGER: Inhibition of human DMS-53 cell growth in a cell viability assay.

[9] = system: DV-90; assay: cells; format: functional, cell-based, Homo sapiens;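 further: Read-out is a viability assay, with IC50 reflecting the drop in DV-90 cell growth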
Description: SANGER: Inhibition of human DV-90 cell growth in a cell viability assay.

[10] = system: EFE-184; assay: cells; format: functional, cell-based, Homo sapiens
Description: SANGER: Inhibition of human EFE-184 cell growth in a cell viability assay.

[11] = system: EW-7; assay: SANGER: Inhibition of human EW-7 cell growth in a cell viability assay.; format: functional, cell-based
[12] = system: MDA-MB-468; assay: cells; format: functional, cell-based, Homo sapiens
Description: SANGER: Inhibition of human MDA-MB-468 cell growth in a cell viability assay.

[13] = system: MES-SA; assay: cells; format: functional, cell-based, Homo sapiens;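 further: growth inhibition of human MES-SA cells, read out with a cell viability assay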
Description: SANGER: Inhibition of human MES-SA cell growth in a cell viability assay.

[14] = system: NCI-H1734; assay: cells; format: functional, cell-based, Homo sapiens;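 further: growth inhibition of human NCI-H1734 cells, read out with a cell viability assay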
Description: SANGER: Inhibition of human NCI-H1734 cell growth in a cell viability assay.

[15] = system: NCI-H838; assay: cells; format: functional, cell-based, Homo sapiens;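 further: growth inhibition of human NCI-H838 cells, read out by a cell viability assay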
Description: SANGER: Inhibition of human NCI-H838 cell growth in a cell viability assay.

[16] = system: SNG-M; assay: cells; format: functional, cell-based, Homo sapiens
Description: SANGER: Inhibition of human SNG-M cell growth in a cell viability assay.

[17] = system: C-4-II; assay: SANGER: Inhibition of human C-4-II cell growth in a cell viability assay.; format: functional, cell-based
[18] = system: TT; assay: cells; format: functional, cell-based, Homo sapiens
Description: SANGER: Inhibition of human TT cell growth in a cell viability assay.

[19] = system: EW-12; assay: SANGER: Inhibition of human EW-12 cell growth in a cell viability assay.; format: functional, cell-based
[20] = system: NCI-H128; assay: SANGER: Inhibition of human NCI-H128 cell growth in a cell viability assay.; format: functional, cell-based
[21] = system: NCI-H2107; assay: SANGER: Inhibition of human NCI-H2107 cell growth in a cell viability assay.; format: functional, cell-based

Compound | IC50 ([6]; Homo sapiens, Calu-1) [µM] | IC50 ([7]; Homo sapiens, Caov-3) [µM] | IC50 ([8]; Homo sapiens, DMS-53) [µM] | IC50 ([9]; Homo sapiens, DV-90) [µM] | IC50 ([10]; Homo sapiens, EFE-184) [µM] | IC50 ([11]; Homo sapiens, EW-7) [µM] | IC50 ([12]; Homo sapiens, MDA-MB-468) [µM] | IC50 ([13]; Homo sapiens, MES-SA) [µM] | IC50 ([14]; Homo sapiens, NCI-H1734) [µM] | IC50 ([15]; Homo sapiens, NCI-H838) [µM] | IC50 ([16]; Homo sapiens, SNG-M) [µM] | IC50 ([17]; Homo sapiens, C-4-II) [µM] | IC50 ([18]; Homo sapiens, TT) [µM] | IC50 [19] [µM] | IC50 [20] [µM] | IC50 [21] [µM] | also measured
CO[C@H]1C[C@@H]2CC[C@@H](C)[C@@](O)(O2)C(=O)C(=O)N2CCCC[C@H]2C(=O)O[C@H]([C@H](C)C[C@@H]2CC[C@@H](OC(=O)C(C)(CO)CO)[C@H](OC)C2)CC(=O)[C@H](C)/C=C(\C)[C@@H](O)[C@@H](OC)C(=O)[C@H](C)C[C@H](C)/C=C/C=C/C=C/1C [TEMSIROLIMUS] | – | – | – | – | – | – | – | – | – | – | – | – | – | – | – | – | IC50 ([1]; Homo sapiens, ECC10): > 0.2 µM; IC50 ([2]; Homo sapiens, LU-135): > 0.2 µM; IC50 ([3]; Homo sapiens, NBsusSR): 0.0213 µM; IC50 ([4]; Homo sapiens, NCI-H1666): > 0.2 µM; IC50 ([5]; Homo sapiens, TGBC11TKB): > 0.2 µM
COC1=CC(c2cc3ccccc3[nH]2)=N/C1=C\c1[nH]c(C)cc1C [OBATOCLAX MESYLATE] | 0.313 | 1.69 | 0.478 | 1.76 | 7.32 | < 0.0625 | 0.917 | 0.405 | 0.42 | 0.528 | < 0.0625 | 3.76 | > 16 | – | – | – | –
BLEOMYCIN | – | – | – | – | – | – | – | – | – | – | – | – | – | – | – | – | IC50 ([6]; calu-1): 5.14 µM; IC50 ([7]; caov-3): 20.5 µM; IC50 ([8]; dms-53): 319 µM; IC50 ([9]; dv-90): 182 µM; IC50 ([10]; efe-184): 383 µM; IC50 ([11]; ew-7): 3.06 µM; IC50 ([12]; mda-mb-468): 67.6 µM; IC50 ([13]; mes-sa): 1.67 µM; IC50 ([14]; nci-h1734): 0.0174 µM; IC50 ([15]; nci-h838): 5.95 µM; IC50 ([16]; sng-m): 0.831 µM; IC50 ([17]; c-4-ii): 0.381 µM; IC50 ([18]; tt): 59.2 µM
CCN(CC)CCNC(=O)c1c(C)[nH]c(/C=C2\C(=O)Nc3ccc(F)cc32)c1C [SUNITINIB] | – | – | – | – | – | – | – | – | – | – | – | – | – | > 8 | > 8 | > 8 | –
Cc1cc([N+](=O)[O-])ccc1NS(=O)(=O)c1cc(Cl)ccc1Cl | 8.64 | > 32 | 1.1 | 1.94 | 5.8 | > 32 | 1.21 | > 32 | 8.73 | 20.6 | 2.77 | 6.37 | 9.13 | – | – | – | –
Nc1ccn([C@@H]2O[C@H](CO)[C@@H](O)C2(F)F)c(=O)n1 [GEMCITABINE] | 0.22 | 0.0541 | > 1.02 | > 1.02 | > 1.02 | < 0.004 | 0.0141 | < 0.004 | 0.0113 | 0.499 | < 0.004 | 0.152 | > 1.02 | – | – | – | –
OCCCNc1cc(-c2ccnc(Nc3cccc(Cl)c3)n2)ccn1 | – | – | – | – | – | – | – | – | – | – | – | – | – | > 0.256 | > 0.256 | 0.135 | –
COc1cccc2c1C(=O)c1c(O)c3c(c(O)c1C2=O)C[C@@](O)(C(=O)CO)C[C@@H]3O[C@H]1C[C@H](N)[C@H](O)[C@H](C)O1 [DOXORUBICIN] | 0.0736 | 0.406 | > 1.02 | 0.329 | > 1.02 | 0.0306 | 0.0762 | 0.0995 | 0.053 | 0.225 | 0.0183 | 0.473 | > 1.02 | – | – | – | –
COc1cc2ncn(-c3cc(OCc4ccccc4C(F)(F)F)c(C(N)=O)s3)c2cc1OC [GW843682X] | – | – | – | – | – | – | – | – | – | – | – | – | – | > 0.256 | > 0.256 | > 0.256 | –
O=C(O)c1ccc(-c2c[nH]c3ncc(-c4ccccc4)cc23)cc1C1CCCC1 [GSK-650394] | > 16 | > 16 | > 16 | > 16 | > 16 | > 16 | > 16 | 5.56 | > 16 | > 16 | 1.8 | 13.9 | > 16 | – | – | – | –
CC(=O)O[C@H]1C(=O)[C@@]2(C)[C@H]([C@H](OC(=O)c3ccccc3)[C@]3(O)C[C@H](OC(=O)[C@H](O)[C@@H](NC(=O)c4ccccc4)c4ccccc4)C(C)=C1C3(C)C)[C@]1(OC(C)=O)CO[C@@H]1C[C@@H]2O [PACLITAXEL] | – | – | – | – | – | – | – | – | – | – | – | – | – | > 0.102 | > 0.102 | > 0.102 | –
CS(=O)(=O)c1ccc(C(=O)Nc2ccc(Cl)c(-c3ccccn3)c2)c(Cl)c1 [VISMODEGIB] | – | – | – | – | – | – | – | – | – | – | – | – | – | – | – | – | IC50 ([2]; Homo sapiens, LU-135): > 10 µM; IC50 ([3]; Homo sapiens, NBsusSR): > 10 µM; IC50 ([4]; Homo sapiens, NCI-H1666): > 10 µM; IC50 ([5]; Homo sapiens, TGBC11TKB): > 10 µM
COc1cc(-c2nn([C@H]3CC[C@H](N4CCN(C(C)=O)CC4)CC3)c3ncnc(N)c23)ccc1NC(=O)c1cc2ccccc2n1C | – | – | – | – | – | – | – | – | – | – | – | – | – | > 5.12 | > 5.12 | > 5.12 | –
Nc1cccc2c1CN(C1CCC(=O)NC1=O)C2=O (configuration not stated) [LENALIDOMIDE] | – | – | – | – | – | – | – | – | – | – | – | – | – | – | – | – | IC50 ([1]; Homo sapiens, ECC10): > 5 µM; IC50 ([2]; Homo sapiens, LU-135): > 5 µM; IC50 ([3]; Homo sapiens, NBsusSR): > 5 µM; IC50 ([4]; Homo sapiens, NCI-H1666): > 5 µM; IC50 ([5]; Homo sapiens, TGBC11TKB): > 5 µM
Cc1cn(-c2cc(NC(=O)c3ccc(C)c(Nc4nccc(-c5cccnc5)n4)c3)cc(C(F)(F)F)c2)cn1 [NILOTINIB] | – | – | – | – | – | – | – | – | – | – | – | – | – | – | – | – | IC50 ([1]; Homo sapiens, ECC10): > 2 µM; IC50 ([2]; Homo sapiens, LU-135): > 2 µM; IC50 ([3]; Homo sapiens, NBsusSR): > 2 µM; IC50 ([4]; Homo sapiens, NCI-H1666): > 2 µM; IC50 ([5]; Homo sapiens, TGBC11TKB): > 2 µM
CCC/C=C/C=C/C(=O)O[C@H]1/C(=C/C(=O)OC)C[C@H]2C[C@H]([C@@H](C)O)OC(=O)C[C@H](O)C[C@@H]3C[C@H](OC(C)=O)C(C)(C)[C@](O)(C[C@@H]4C/C(=C/C(=O)OC)C[C@H](/C=C/C(C)(C)[C@]1(O)O2)O4)O3 [BRYOSTATIN 1] | > 0.008 | > 0.008 | > 0.008 | > 0.008 | > 0.008 | > 0.008 | > 0.008 | > 0.008 | > 0.008 | > 0.008 | > 0.008 | > 0.008 | > 0.008 | – | – | – | –
C=C(c1ccc(C(=O)O)cc1)c1cc2c(cc1C)C(C)(C)CCC2(C)C [BEXAROTENE] | > 8 | > 8 | > 8 | > 8 | > 8 | > 8 | > 8 | > 8 | > 8 | > 8 | > 8 | > 8 | > 8 | – | – | – | –
N[C@@H](CSC(c1ccccc1)(c1ccccc1)c1ccccc1)C(=O)O [S-TRITYL-L-CYSTEINE] | – | – | – | – | – | – | – | – | – | – | – | – | – | > 5.12 | > 5.12 | > 5.12 | –
CISPLATIN | – | – | – | – | – | – | – | – | – | – | – | – | – | – | – | – | IC50 ([1]; ecc10): 258 µM; IC50 ([2]; lu-135): 33.8 µM; IC50 ([3]; nbsussr): 1.33 µM; IC50 ([4]; nci-h1666): 56.5 µM; IC50 ([5]; tgbc11tkb): 29.4 µM
Cc1ccc(-c2c(C(=O)CCl)n(CCCO)c3ncnc(N)c23)cc1 | – | – | – | – | – | – | – | – | – | – | – | – | – | > 4 | 3.1 | > 4 | –
CN(C)C(=N)NC(=N)N [METFORMIN] | – | – | – | – | – | – | – | – | – | – | – | – | – | – | – | – | IC50 ([1]; Homo sapiens, ECC10): 2280 µM; IC50 ([3]; Homo sapiens, NBsusSR): 9190 µM; IC50 ([5]; Homo sapiens, TGBC11TKB): > 20000 µM
